Measurements taken from BindingDB's records for doi:10.1021/jm801427r (Universita Di Pisa, 2009).

target: T1, Adenosine deaminase (Bos taurus, UniProt P56658); test: ADA Enzyme Inhibition Assay; details: pH 7.2; 30 °C
T1 sequence (P56658 whole entry): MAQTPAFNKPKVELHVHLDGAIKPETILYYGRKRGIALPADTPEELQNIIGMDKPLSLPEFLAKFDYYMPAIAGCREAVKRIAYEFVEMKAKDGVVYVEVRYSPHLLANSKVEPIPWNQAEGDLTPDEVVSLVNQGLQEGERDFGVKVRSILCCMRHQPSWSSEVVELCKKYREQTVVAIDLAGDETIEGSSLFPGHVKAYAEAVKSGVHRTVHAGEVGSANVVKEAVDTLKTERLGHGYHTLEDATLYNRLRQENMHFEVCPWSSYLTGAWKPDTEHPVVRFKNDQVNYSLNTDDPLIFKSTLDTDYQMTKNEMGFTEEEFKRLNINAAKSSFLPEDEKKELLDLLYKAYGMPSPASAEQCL
Description: The activity of ADA was determined spectrophotometrically by monitoring the change in absorbance at 262 nm, due to the deamination of adenosine catalyzed by the enzyme. The change in adenosine concentration per min was determined using a Beckman DU-64 kinetics software program (Solf Pack TM Module). To correct for the background change in absorption, a reference blank containing all the assay components except the substrate was prepared. Each inhibitor concentration was tested in triplicate. The IC50 values were determined by linear regression analysis of dose-response curves. The Ki values were calculated from IC50 values by means of the Cheng and Prusoff.

| Ki [nM] | SMILES |
| --- | --- |
| 1.15 | O=C(Nc1ccc(F)cc1)Nc1ccc(Cn2cc3c(=O)[nH]cnc3n2)cc1 [1-(4-fluorophenyl)-3-[4-({4-oxo-2H,4H,5H-pyrazolo[3,4-d]pyrimidin-2-yl}methyl)phenyl]urea] |
| 0.16 | O=C(Nc1ccc(Cn2cc3c(=O)[nH]cnc3n2)cc1)Nc1ccc(C(F)(F)F)cc1 [3-[4-({4-oxo-2H,4H,5H-pyrazolo[3,4-d]pyrimidin-2-yl}methyl)phenyl]-1-[4-(trifluoromethyl)phenyl]urea] |
| 0.96 | O=C(Nc1ccc(Cn2cc3c(=O)[nH]cnc3n2)cc1)c1ccc(F)cc1 [4-fluoro-N-[4-({4-oxo-2H,4H,5H-pyrazolo[3,4-d]pyrimidin-2-yl}methyl)phenyl]benzamide] |
| 28.3 | COc1ccc(NC(=O)Nc2ccc(Cn3cc4c(=O)[nH]cnc4n3)cc2)cc1 [1-(4-methoxyphenyl)-3-[4-({4-oxo-2H,4H,5H-pyrazolo[3,4-d]pyrimidin-2-yl}methyl)phenyl]urea] |
| 2.42 | O=C(Nc1ccccc1)Nc1ccc(Cn2cc3c(=O)[nH]cnc3n2)cc1 [3-[4-({4-oxo-2H,4H,5H-pyrazolo[3,4-d]pyrimidin-2-yl}methyl)phenyl]-1-phenylurea] |
| 0.51 | O=C(Nc1ccc(Cn2cc3c(=O)[nH]cnc3n2)cc1)c1ccc(C(F)(F)F)cc1 [N-[4-({4-oxo-2H,4H,5H-pyrazolo[3,4-d]pyrimidin-2-yl}methyl)phenyl]-4-(trifluoromethyl)benzamide] |
| 1.14 | CCCCCC[C@H]([C@H](C)O)n1cnc2c(N)ncnc21 [(2S,3R)-3-(6-amino-9H-purin-9-yl)nonan-2-ol] |
| 85.7 | O=C(NCc1ccccc1)Nc1ccc(Cn2cc3c(=O)[nH]cnc3n2)cc1 [1-benzyl-3-[4-({4-oxo-2H,4H,5H-pyrazolo[3,4-d]pyrimidin-2-yl}methyl)phenyl]urea] |
| 108 | O=C(Nc1ccc(Cn2cc3c(=O)[nH]cnc3n2)cc1)Nc1ccc(OCc2ccccc2)cc1 [1-[4-(benzyloxy)phenyl]-3-[4-({4-oxo-2H,4H,5H-pyrazolo[3,4-d]pyrimidin-2-yl}methyl)phenyl]urea] |
| 12.7 | O=C(Nc1ccc(Cn2cc3c(=O)[nH]cnc3n2)cc1)c1ccccc1 [N-[4-({4-oxo-2H,4H,5H-pyrazolo[3,4-d]pyrimidin-2-yl}methyl)phenyl]benzamide] |
| 15.6 | COc1ccc(C(=O)Nc2ccc(Cn3cc4c(=O)[nH]cnc4n3)cc2)cc1 [4-methoxy-N-[4-({4-oxo-2H,4H,5H-pyrazolo[3,4-d]pyrimidin-2-yl}methyl)phenyl]benzamide] |
| 2.01 | CN(C)c1ccc(NC(=O)Nc2ccc(Cn3cc4c(=O)[nH]cnc4n3)cc2)cc1 [1-[4-(dimethylamino)phenyl]-3-[4-({4-oxo-2H,4H,5H-pyrazolo[3,4-d]pyrimidin-2-yl}methyl)phenyl]urea] |

| SMILES | Ki [nM] |
| --- | --- |
| O=C(Nc1ccc(Cc2ccccc2)cc1)Nc1ccc(Cn2cc3c(=O)[nH]cnc3n2)cc1 [1-(4-benzylphenyl)-3-[4-({4-oxo-2H,4H,5H-pyrazolo[3,4-d]pyrimidin-2-yl}methyl)phenyl]urea] | 186 |
| O=C(Cc1ccccc1)Nc1ccc(Cn2cc3c(=O)[nH]cnc3n2)cc1 [N-[4-({4-oxo-2H,4H,5H-pyrazolo[3,4-d]pyrimidin-2-yl}methyl)phenyl]-2-phenylacetamide] | 47.9 |
